Laboratory results published in patent US20080069896A1, “Antitumor Composition” (Kabushiki Kaisha Sangi, priority 2004, published 2008).

How the values were obtained:
HeLa = test: MTT assay, human cancer cells HeLa; format: cell-based; conditions: for Platinum content calculated from IC50 of human cancer cells by MTT assay: IC50 converted to platinum concentration; for IC50 of human cancer cells by MTT assay: cervical cancer, HAP agents particle diameter 0.1 μm or less
Method: (§1) Effect of platinum tetrachloride/hydroxyapatite (PtCl4/HAP) and hexachloroplatinate/hydroxyapatite (H2PtCl6/HAP) against human cancer cells (MTT assay)
(§2) According to “in vitro toxicity test using MTT”, which is an ordinary test method, MTT assay was performed for PtCl4/HAP (particle diameter 0.1 μm or less), and H2PtCl6/HAP (particle diameter 0.1 μm or less) by using 19 types of human cancer cells. PtCl4/HAP and H2PtCl6/HAP were used by adjusting the final dispersion concentration to 1.0% in a dispersion liquid each containing 10% platinum as a theoretical value. For comparison, MTT assay was performed for PtCl4 and CDDP. PtCl4 was dissolved at an adequate dose, and then used after serial dilution with PBS (−). For CDDP, injection liquid from Malco was used.

HT1080 = test: MTT assay, human cancer cells HT1080; format: cell-based; conditions: for IC50 of human cancer cells by MTT assay: HT1080, fibrosarcoma, HAP agents particle diameter 0.1 μm or less; for Platinum content calculated from IC50 of human cancer cells by MTT assay: HT1080, IC50 converted to platinum concentration
Method: as §1, §2

A431 = test: MTT assay, human cancer cells A431; format: cell-based; conditions: for IC50 of human cancer cells by MTT assay: A431, squamous cell cancer, HAP agents particle diameter 0.1 μm or less; for Platinum content calculated from IC50 of human cancer cells by MTT assay: A431, IC50 converted to platinum concentration
Method: as §1, §2

HSC3 = test: MTT assay, human cancer cells HSC3; format: cell-based; conditions: for IC50 of human cancer cells by MTT assay: HSC3, oral cancer, HAP agents particle diameter 0.1 μm or less; for Platinum content calculated from IC50 of human cancer cells by MTT assay: HSC3, IC50 converted to platinum concentration
Method: as §1, §2

HSC4 = test: MTT assay, human cancer cells HSC4; format: cell-based; conditions: for IC50 of human cancer cells by MTT assay: HSC4, oral cancer, HAP agents particle diameter 0.1 μm or less; for Platinum content calculated from IC50 of human cancer cells by MTT assay: HSC4, IC50 converted to platinum concentration
Method: as §1, §2

YES1 = test: MTT assay, human cancer cells YES1; format: cell-based; conditions: for IC50 of human cancer cells by MTT assay: YES1, esophageal cancer, HAP agents particle diameter 0.1 μm or less; for Platinum content calculated from IC50 of human cancer cells by MTT assay: YES1, IC50 converted to platinum concentration
Method: as §1, §2

YES3 = test: MTT assay, human cancer cells YES3; format: cell-based; conditions: for IC50 of human cancer cells by MTT assay: YES3, esophageal cancer, HAP agents particle diameter 0.1 μm or less; for Platinum content calculated from IC50 of human cancer cells by MTT assay: YES3, IC50 converted to platinum concentration
Method: as §1, §2

YES5 = test: MTT assay, human cancer cells YES5; format: cell-based; conditions: for IC50 of human cancer cells by MTT assay: YES5, esophageal cancer, HAP agents particle diameter 0.1 μm or less; for Platinum content calculated from IC50 of human cancer cells by MTT assay: YES5, IC50 converted to platinum concentration
Method: as §1, §2

YES6 = test: MTT assay, human cancer cells YES6; format: cell-based; conditions: for IC50 of human cancer cells by MTT assay: YES6, esophageal cancer, HAP agents particle diameter 0.1 μm or less; for Platinum content calculated from IC50 of human cancer cells by MTT assay: YES6, IC50 converted to platinum concentration
Method: as §1, §2

NUGC-4 = test: MTT assay, human cancer cells NUGC-4; format: cell-based; conditions: for IC50 of human cancer cells by MTT assay: NUGC-4, gastric cancer, HAP agents particle diameter 0.1 μm or less; for Platinum content calculated from IC50 of human cancer cells by MTT assay: NUGC-4, IC50 converted to platinum concentration
Method: as §1, §2

SW837 = test: MTT assay, human cancer cells SW837; format: cell-based; conditions: for IC50 of human cancer cells by MTT assay: SW837, colon cancer, HAP agents particle diameter 0.1 μm or less; for Platinum content calculated from IC50 of human cancer cells by MTT assay: SW837, IC50 converted to platinum concentration
Method: as §1, §2

[1] = test system: human lung cancer cell Lu65; test: MTT assay, human lung cancer cell Lu65; format: cell-based; conditions: for IC50 of human cancer cells by MTT assay: Lu65, lung cancer, HAP agents particle diameter 0.1 μm or less (Table 1); for Platinum content calculated from IC50 of human cancer cells by MTT assay: Lu65, IC50 converted to platinum concentration (Table 2)
Method: as §1, §2

[2] = test system: fibroblasts during proliferation stage; test: Toxicity test during proliferation stage (MTT assay); format: cell-based; conditions: rat fibroblasts, 48 hours; for IC50 in the toxicity test during proliferation stage: HAP agents particle diameter 0.1 μm or less
From the text: (§3) A male mature rat was deeply anesthetized with ether, and disinfected by wiping carefully its tail with alcohol. The tail end part was cut by several centimeters, and the skin was removed from coccyx. Tendon was attached to the coccyx, and by culturing the same, fibroblasts can be recovered. Coccyx part was further cut finely with a sterilized pair of scissors, and adhered on a sterilized plastic plate with the cut surface down. After resting the plate for a while, DMEM supplemented with 10% FBS was added thereto. In approximately one week, fibroblasts germinated from the coccyx part, and proliferated in the plate. The fibroblasts collected from rat tail end were used for the following experiment.
According to “in vitro toxicity test method using MTT” which is an ordinary test method, MTT assay was performed for PtCl4/HAP (particle diameter 0.1 μm or less) and H2PtCl6/HAP (particle diameter 0.1 μm or less). PtCl4/HAP and H2PtCl6/HAP were used by adjusting the final dispersion concentration to 1.0%, with a dispersion liquid each containing 10% platinum as a theoretical value. For comparison, MTT assay was performed for PtCl4 and CDDP. PtCl4 was dissolved at an adequate dose, and then used after serial dilution with PBS (−) For CDDP, injection liquid from Malco was used.
Fibroblasts during proliferation stage on the plate were peeled off with trypsin-EDTA, adjusted to 1×10^4/ml, and poured by aliquot of […] in a 96-well plate.
The 96-well plate added with fibroblasts was cultured for 24 hours, and samples serially diluted with PBS (−) were added by an amount of 10 μl. 48 hours after adding a test sample, 200 μl of PBS (−) was added to the 96-well plate, and approximately 1 min after, all the solution was removed. Immediately, 160 μl of DMSO was added to the plate. However, to the plates in which PtCl4/HAP and H2PtCl6/HAP were added, DMSO was added in an amount of 200 μl, respectively. Each plate was shaken for 5 min in a shaker, to dissolve completely the formed formazan. As it was believed that precipitation of PtCl4/HAP and H2PtCl6/HAP would suppress the colorization, the plates of PtCl4/HAP and H2PtCl6/HAP were rested for 5 min, and 160 μl of the supernatant was moved to another 96-well plate. Test samples for each cell and each concentration, the test was performed for 4 wells or more, and the optical density was measured by using a microplate at 550 nm.

[3] = test system: fibroblasts at confluency; test: Microscopic observation of toxicity effect during resting stage; format: cell-based, rat; conditions: amount corresponding to 2 ppm of platinum content, fibroblasts at confluency, cultured for 48 hours
From the text: as §3
From the result of Example 7, 2 ppm which is a value of platinum content that kills 50% of fibroblasts in CDDP during resting stage was set as a standard. Then, CDDP, PtCl4/HAP, PtCl4 and HAP dispersion liquids in an amount corresponding to 2 ppm of platinum content, were added to the fibroblasts at confluency in a medium, and cultured for 48 hours.

SMILES | Platinum content calculated from IC50 of human cancer cells by MTT assay (HeLa) [ppm] | IC50 of human cancer cells by MTT assay (HeLa) [ppm] | IC50 of human cancer cells by MTT assay (HT1080) [ppm] | Platinum content calculated from IC50 of human cancer cells by MTT assay (HT1080) [ppm] | IC50 of human cancer cells by MTT assay (A431) [ppm] | Platinum content calculated from IC50 of human cancer cells by MTT assay (A431) [ppm] | IC50 of human cancer cells by MTT assay (HSC3) [ppm] | Platinum content calculated from IC50 of human cancer cells by MTT assay (HSC3) [ppm] | IC50 of human cancer cells by MTT assay (HSC4) [ppm] | Platinum content calculated from IC50 of human cancer cells by MTT assay (HSC4) [ppm] | IC50 of human cancer cells by MTT assay (YES1) [ppm] | Platinum content calculated from IC50 of human cancer cells by MTT assay (YES1) [ppm] | IC50 of human cancer cells by MTT assay (YES3) [ppm] | Platinum content calculated from IC50 of human cancer cells by MTT assay (YES3) [ppm] | IC50 of human cancer cells by MTT assay (YES5) [ppm] | Platinum content calculated from IC50 of human cancer cells by MTT assay (YES5) [ppm] | IC50 of human cancer cells by MTT assay (YES6) [ppm] | Platinum content calculated from IC50 of human cancer cells by MTT assay (YES6) [ppm] | IC50 of human cancer cells by MTT assay (NUGC-4) [ppm] | Platinum content calculated from IC50 of human cancer cells by MTT assay (NUGC-4) [ppm] | also measured
[NH2][Pt]([NH2])([Cl])[Cl] [CDDP, cisplatin] | 1.4 | 2.1 | 25.5 | 16.6 | 5.7 | 3.7 | 2.9 | 1.9 | 4.5 | 2.9 | 8.2 | 5.4 | 1.2 | 0.8 | 10.0 | 6.5 | 0.8 | 0.5 | 15.6 | 10.1 | IC50 of human cancer cells by MTT assay (SW837): 40.2 ppm; Platinum content calculated from IC50 of human cancer cells by MTT assay (SW837): 26.1 ppm; IC50 of human cancer cells by MTT assay [1]: 2.7 ppm; Platinum content calculated from IC50 of human cancer cells by MTT assay [1]: 2.7 ppm; Net Pt: platinum content wherein IC50 is converted to platinum concentration, proliferation stage [2]: 0.3 ppm; IC50 in the toxicity test during proliferation stage [2]: 0.5 ppm; Microscopic observation of cell form of cultured fibroblasts [3]: most of the cells had a round form
[Cl][Pt]([Cl])([Cl])[Cl] [PtCl4, platinum tetrachloride] | 4.0 | 7.0 | 9.6 | 5.6 | 9.5 | 5.5 | 9.6 | 5.5 | 5.7 | 3.3 | 19.2 | 11.1 | 19.2 | 11.1 | 20.1 | 11.6 | 11.9 | 6.9 | 7.7 | 4.5 | IC50 of human cancer cells by MTT assay (SW837): 32.9 ppm; Platinum content calculated from IC50 of human cancer cells by MTT assay (SW837): 19.1 ppm; IC50 of human cancer cells by MTT assay [1]: 0.9 ppm; Platinum content calculated from IC50 of human cancer cells by MTT assay [1]: 0.9 ppm; Net Pt: platinum content wherein IC50 is converted to platinum concentration, proliferation stage [2]: 2.3 ppm; IC50 in the toxicity test during proliferation stage [2]: 4.0 ppm; Microscopic observation of cell form of cultured fibroblasts [3]: many cells wherein spindle form was deformed, or having a round form, were observed
